The source of these data is publication PMC12040169 (PLOS Biology, 2025).

The series can be described thus: in vitro. The settings on record: human, hela cells, % viability.
As usually defined, the viability is a read-out of living cells in per cent, often relative to untreated cells. `CCN(CC)C(=O)c1[nH]c2ccccc2c1NS(=O)(=O)c1cc(Br)ccc1OC` [CBK050113]: the viability at 28.5 h, 10 µM worked out at 92.6%.

Regarding `CC(C)(C)Cc1nnc(N)s1` [CBK050161], the viability at 28.5 h, 10 µM stood at 92.6%.

Turning to `CC(C)c1nnc(NS(=O)(=O)c2ccc(N)cc2)s1` [CBK050163], the viability at 28.5 h, 10 µM turned out to be 101%.

Regarding `Cc1ccc(S(N)(=O)=O)cc1NC(=O)c1ccc[nH]1` [CBK050200], the viability at 28.5 h, 10 µM came to 91.2%.

With `O=C(CCCc1ccccc1)Nc1c(F)cc(F)cc1OC1CCNCC1` [CBK050222T], the viability at 28.5 h, 10 µM turned out to be 96.1%.

In the case of `O=C(Nc1ccccc1OC1CCNCC1)c1ccccc1` [CBK050238T], the viability at 28.5 h, 10 µM was 115%.

Consider `COc1cc(F)cc(OC2CCNCC2)c1NC(=O)C1(c2ccccc2)CCCCC1` [CBK050241T], for which the viability at 28.5 h, 10 µM was found to be 107%.

For `COc1cc(F)cc(OC2CCNCC2)c1NC(=O)Cc1c[nH]c2ccccc12` [CBK050246T], the viability at 28.5 h, 10 µM worked out at 91%.

With `COc1ccc(CCCC(=O)Nc2c(C)nn(C)c2N2CCNCC2)cc1OC` [CBK050252T], the viability at 28.5 h, 10 µM turned out to be 93%.

As to `Cc1nn(C)c(N2CCNCC2)c1NC(=O)Cc1c[nH]c2ccccc12` [CBK050256T], the viability at 28.5 h, 10 µM amounted to 97.1%.

Regarding `Cc1nn(C)c(N2CCNCC2)c1NC(=O)c1ccccc1` [CBK050257T], the viability at 28.5 h, 10 µM came out at 99%.

In the case of `O=C(Nc1c(F)cc(F)cc1OC1CCNCC1)c1cnccn1` [CBK050273T], the viability at 28.5 h, 10 µM was determined as 100%.

Consider `O=C(Nc1c(F)cc(F)cc1OC1CCNCC1)c1ccccn1` [CBK050274T], for which the viability at 28.5 h, 10 µM worked out at 94.8%.

As for `O=C(Nc1c(F)cc(F)cc1OC1CCNCC1)c1cccnc1` [CBK050275T], the viability at 28.5 h, 10 µM came out at 100%.

On to `COc1ccc(C(=O)Nc2ccccc2OC2CCNCC2)cc1` [CBK050282T], for which the viability at 28.5 h, 10 µM was 85%.

For `COc1ccc(C(=O)Nc2c(OC)cc(F)cc2OC2CCNCC2)cc1` [CBK050294T], the viability at 28.5 h, 10 µM turned out to be 97%.

Turning to `Cc1nn(C)c(N2CCNCC2)c1NC(=O)c1cccn1C` [CBK050309T], the viability at 28.5 h, 10 µM was 94.8%.

For the compound `O=C(/C=C/c1cccnc1)Nc1c(F)cc(F)cc1OC1CCNCC1` [CBK050324T], the viability at 28.5 h, 10 µM was determined as 90.5%.

Regarding `Cn1cc(C(=O)Nc2c(F)cc(F)cc2OC2CCNCC2)c2ccccc21` [CBK050328T], the viability at 28.5 h, 10 µM was 89.1%.

Turning to `COc1cc(F)cc(OC2CCNCC2)c1NC(=O)c1coc2c1C(=O)CCC2` [CBK050351T], the viability at 28.5 h, 10 µM is 91.5%.

With `COc1cc(F)cc(OC2CCNCC2)c1NC(=O)C1=CC(=O)CC(C)(C)O1` [CBK050352T], the viability at 28.5 h, 10 µM amounted to 96.9%.

On to `COc1ccc(/C=C(\C)C(=O)Nc2c(OC)cc(F)cc2OC2CCNCC2)cc1OC` [CBK050353T], for which the viability at 28.5 h, 10 µM was found to be 98.6%.

For the compound `Cc1nn(C)c(N2CCNCC2)c1NC(=O)/C=C/c1cccnc1` [CBK050354T], the viability at 28.5 h, 10 µM is 95.4%.

As for `Cc1nn(C)c(N2CCNCC2)c1NC(=O)C1=CC(=O)CC(C)(C)O1` [CBK050362T], the viability at 28.5 h, 10 µM came to 99.9%.

With `O=c1c(N2CCNCC2)nccn1CCc1cccs1` [CBK050382T], the viability at 28.5 h, 10 µM was 89.3%.

With `COCCn1c(-c2ccc(CN3CCCC3)cc2)cc2onc(C)c2c1=O` [CBK050385C], the viability at 28.5 h, 10 µM was 104%.

Consider `CCN(CC)C(=O)c1sccc1NS(=O)(=O)Cc1ccccc1[N+](=O)[O-]` [CBK050396], for which the viability at 28.5 h, 10 µM was found to be 97%.

For `O=C(Nc1ccc(F)cc1)c1ccc(NS(=O)(=O)c2ccc(Br)cc2)cc1` [CBK050400], the viability at 28.5 h, 10 µM amounted to 103%.

As for `CC(=O)Nc1ccc(S(=O)(=O)Nc2ccc(C(=O)Nc3ccc(F)cc3)cc2)cc1` [CBK050401], the viability at 28.5 h, 10 µM came to 111%.

`CC(=O)Nc1ccc(S(=O)(=O)Nc2ccc(C(=O)N3CCN(C)CC3)cc2)cc1` [CBK050406]: the viability at 28.5 h, 10 µM is 93.1%.

For `CC(=O)Nc1ccc(S(=O)(=O)Nc2cccc(C(=O)O)c2)cc1` [CBK050407], the viability at 28.5 h, 10 µM turned out to be 98.7%.

On to `CN1CCN(C(=O)c2c(NS(=O)(=O)/C=C/c3ccccc3)sc3c2CCCC3)CC1` [CBK050417], for which the viability at 28.5 h, 10 µM stood at 94.3%.

With `CN1CCN(C(=O)c2c(NS(=O)(=O)c3cc(F)c(Br)cc3F)sc3c2CCCC3)CC1` [CBK050419], the viability at 28.5 h, 10 µM was determined as 90.5%.

With `O=C(c1sccc1NS(=O)(=O)c1ccc(Oc2ccccc2)cc1)N1CCOCC1` [CBK050423], the viability at 28.5 h, 10 µM came to 95.3%.

With `CC(=O)Nc1ccc(S(=O)(=O)Nc2ccc(C(=O)O)cc2)cc1` [CBK050427], the viability at 28.5 h, 10 µM was 91.3%.

As to `Cc1ccc(S(N)(=O)=O)cc1C(=O)Nc1nncs1` [CBK050456], the viability at 28.5 h, 10 µM was determined as 105%.

With `O=S(=O)(Nc1nnn[nH]1)c1ccc(F)cc1` [CBK050473], the viability at 28.5 h, 10 µM stood at 104%.

Regarding `O=S(=O)(Nc1ccc(-c2csnn2)cc1)c1ccc(F)cc1` [CBK050482], the viability at 28.5 h, 10 µM came out at 92.1%.

With `Cc1nc(NS(=O)(=O)c2c(C)noc2C)sc1C(=O)Nc1ccc(F)cc1` [CBK050551], the viability at 28.5 h, 10 µM came to 113%.

Regarding `CCOC(=O)c1ccccc1NS(=O)(=O)c1ccc(C(F)(F)F)cc1[N+](=O)[O-]` [CBK050584], the viability at 28.5 h, 10 µM stood at 96.2%.

`CCOC(=O)c1ccccc1NS(=O)(=O)Cc1ccccc1[N+](=O)[O-]` [CBK050594]: the viability at 28.5 h, 10 µM came to 92.3%.

Regarding `Cc1ccc(S(=O)(=O)NCC(=O)N2CCOCC2)cc1[N+](=O)[O-]` [CBK050597], the viability at 28.5 h, 10 µM amounted to 98.1%.

Turning to `CCN(CC)C(=O)c1sc2ncccc2c1NS(=O)(=O)c1ccc(C)c([N+](=O)[O-])c1` [CBK050618], the viability at 28.5 h, 10 µM turned out to be 112%.

In the case of `O=C(O)c1sc2ncccc2c1NS(=O)(=O)c1ccc(C(F)(F)F)cc1[N+](=O)[O-]` [CBK050647], the viability at 28.5 h, 10 µM worked out at 118%.

As for `O=C(O)c1sc2ncccc2c1NS(=O)(=O)c1cc(Cl)sc1Cl` [CBK050650], the viability at 28.5 h, 10 µM amounted to 78.2%.

As for `CCCc1ccc(S(=O)(=O)Nc2c(C(=O)OC)sc3ncccc23)cc1` [CBK050653], the viability at 28.5 h, 10 µM turned out to be 87.2%.

On to `CC(=O)Nc1cccc(-c2nccnc2NS(C)(=O)=O)c1` [CBK050740], for which the viability at 28.5 h, 10 µM came out at 108%.

Consider `O=S(=O)(Nc1nccnc1-c1cccs1)C1CC1` [CBK050764], for which the viability at 28.5 h, 10 µM was determined as 93.9%.

With `CC(C)(C)S(=O)(=O)Nc1nccnc1-c1cccs1` [CBK050765], the viability at 28.5 h, 10 µM was determined as 107%.

On to `O=S(=O)(Nc1nccnc1-c1cccs1)c1ccccc1Cl` [CBK050775], for which the viability at 28.5 h, 10 µM amounted to 94.9%.

Turning to `CN(C)c1ccc(-c2nccnc2NS(=O)(=O)Cc2cccc(Cl)c2)cc1` [CBK050787], the viability at 28.5 h, 10 µM worked out at 102%.

In the case of `CN(C)c1ccc(-c2nccnc2NS(=O)(=O)c2ccccc2C(F)(F)F)cc1` [CBK050801], the viability at 28.5 h, 10 µM was 92.8%.

Consider `COc1ccc(S(=O)(=O)Nc2nccnc2-c2ccc3[nH]ccc3c2)cc1` [CBK050805], for which the viability at 28.5 h, 10 µM is 91.6%.

On to `c1cnc(-c2nnn[nH]2)c(-c2ccc(COc3ccc4c(c3)OCO4)cc2)n1` [CBK050812], for which the viability at 28.5 h, 10 µM is 107%.

For `c1ccc(-c2ccno2)c(OCc2ccc(-c3nccnc3-c3nnn[nH]3)cc2)c1` [CBK050817], the viability at 28.5 h, 10 µM is 93.6%.

Regarding `c1ccc2cc(OCc3ccc(-c4nccnc4-c4nnn[nH]4)cc3)ccc2c1` [CBK050818], the viability at 28.5 h, 10 µM came to 93.9%.

Take `c1ccc2c(c1)ccn2Cc1ccc(-c2nccnc2-c2nnn[nH]2)cc1` [CBK050821]: the viability at 28.5 h, 10 µM was 107%.

Consider `CN(C)C(=O)c1nccnc1-c1ccc(COc2ccc3c(c2)OCO3)cc1` [CBK050829], for which the viability at 28.5 h, 10 µM was found to be 91.1%.

For `O=C(Nc1ccc2c(c1)OCO2)c1nccnc1-c1ccc(COc2ccccc2)cc1` [CBK050834], the viability at 28.5 h, 10 µM is 109%.

With `O=C(Nc1ccccn1)c1nccnc1-c1ccc(COc2ccccc2)cc1` [CBK050835], the viability at 28.5 h, 10 µM worked out at 86.1%.

Consider `O=C(NCc1ccco1)c1nccnc1-c1ccc(COc2ccc3c(c2)CCCC3)cc1` [CBK050851], for which the viability at 28.5 h, 10 µM turned out to be 89.8%.

For the compound `CC(C)(C)S(=O)(=O)Nc1nccnc1-c1ccc(OCc2ccccc2)cc1` [CBK050886], the viability at 28.5 h, 10 µM was 89.4%.

Turning to `O=S(=O)(Nc1nccnc1-c1ccc2c(c1)OCO2)c1ccc(Cl)cc1` [CBK050952], the viability at 28.5 h, 10 µM came to 92.4%.

As to `N#CCn1c(-c2nonc2N)nc2ccccc21` [CBK050974], the viability at 28.5 h, 10 µM worked out at 92.3%.

With `CC(C)c1ccc(S(=O)(=O)N2CC3CC2CO3)cc1` (stereo not shown) [CBK050999], the viability at 28.5 h, 10 µM stood at 97.3%.

In the case of `COc1cc([C@@H]2c3cc4c(cc3[C@H](O)[C@H]3COC(=O)[C@@H]23)OCO4)cc(OC)c1OC` [CBK051004], the viability at 28.5 h, 10 µM came out at 36.3%.

In the case of `O=S(=O)(Nc1cccnc1N1CCOCC1)c1ccc(F)cc1` [CBK051009], the viability at 28.5 h, 10 µM turned out to be 96.4%.

As for `N#Cc1c[nH]nc1NS(=O)(=O)c1ccc(F)cc1` [CBK051018], the viability at 28.5 h, 10 µM was 106%.

Regarding `Cc1cc(NS(=O)(=O)c2ccc(F)cc2)n(C)n1` [CBK051021], the viability at 28.5 h, 10 µM was 108%.

`Cc1ccnc(NS(=O)(=O)c2ccc(NS(=O)(=O)c3ccc(F)cc3)cc2)n1` [CBK051024]: the viability at 28.5 h, 10 µM came out at 102%.

Regarding `Cc1c(S(=O)(=O)Nc2ccc(C(=O)c3ccccc3)cc2)cnn1-c1ccccc1` [CBK051034], the viability at 28.5 h, 10 µM is 96.5%.

For the compound `O=S(=O)(c1ccccc1)c1cncc(N2CCNCC2)n1` [CBK051078C], the viability at 28.5 h, 10 µM is 89.3%.

For the compound `O=C1CN(S(=O)(=O)c2ccc(F)cc2Cl)CCN1` [CBK051081], the viability at 28.5 h, 10 µM came to 109%.

For `O=C(NCC1COc2ccccc2O1)NC(=O)C1CCNCC1` (stereo not shown) [CBK051096], the viability at 28.5 h, 10 µM turned out to be 91.6%.

Consider `CN1CCC(C(=O)NC(=O)NCCOc2cccc3ccccc23)CC1` [CBK051100], for which the viability at 28.5 h, 10 µM came out at 90.1%.

As to `O=S(=O)(c1ccc(Br)cc1)N1CCCCC1CO` (stereo not shown) [CBK051127], the viability at 28.5 h, 10 µM worked out at 116%.

`COC(=O)C1CCCCN1S(=O)(=O)c1cccs1` (stereo not shown) [CBK051135]: the viability at 28.5 h, 10 µM was 109%.

Consider `CCOC(=O)C1CCN(S(=O)(=O)c2cccs2)CC1` [CBK051137], for which the viability at 28.5 h, 10 µM amounted to 92.4%.

For the compound `Cc1ccc(S(=O)(=O)c2cncc(N3CCNCC3)n2)cc1` [CBK051166C], the viability at 28.5 h, 10 µM came out at 101%.
